In patent US8772499B2, “TRPV3 modulators” (AbbVie Inc., priority 2011, dated 2014):
Where two headings read alike, the source gives them in different places.

How the values were obtained:
[1] = In vitro rat microsomal stability assay; assay type: in vitro ADME, rat (Sprague-Dawley)
Protocol: (§1) Test compounds were evaluated for metabolic stability in an in vitro rat microsomal stability assay using rat liver microsomes (Sprague-Dawley, from BD Biosciences) and/or an in vitro human microsomal stability assay using human liver microsomes (Xenotech). […] Incubations were carried out at 37° C. with a final incubation volume of 135 μL. […] A 1.5 μL aliquot of reduced nicotine adenine disphosphonucleotide (NADPH) (Chem-Impex Int'L Inc., Lot 12532024) was also added to the time-zero plates.

human TRPV3 = biological target: T1, human TRPV3 (Homo sapiens, UniProt Q8NET8); assay: In vitro antagonism of recombinant human TRPV3 activation (FLIPR Tetra calcium assay); assay type: cell-based; settings: HEK293 cells stably expressing human TRPV3, agonist 2-APB at 80 μM
T1 construct: expressed in transfected cells
T1 sequence (Q8NET8 1-790): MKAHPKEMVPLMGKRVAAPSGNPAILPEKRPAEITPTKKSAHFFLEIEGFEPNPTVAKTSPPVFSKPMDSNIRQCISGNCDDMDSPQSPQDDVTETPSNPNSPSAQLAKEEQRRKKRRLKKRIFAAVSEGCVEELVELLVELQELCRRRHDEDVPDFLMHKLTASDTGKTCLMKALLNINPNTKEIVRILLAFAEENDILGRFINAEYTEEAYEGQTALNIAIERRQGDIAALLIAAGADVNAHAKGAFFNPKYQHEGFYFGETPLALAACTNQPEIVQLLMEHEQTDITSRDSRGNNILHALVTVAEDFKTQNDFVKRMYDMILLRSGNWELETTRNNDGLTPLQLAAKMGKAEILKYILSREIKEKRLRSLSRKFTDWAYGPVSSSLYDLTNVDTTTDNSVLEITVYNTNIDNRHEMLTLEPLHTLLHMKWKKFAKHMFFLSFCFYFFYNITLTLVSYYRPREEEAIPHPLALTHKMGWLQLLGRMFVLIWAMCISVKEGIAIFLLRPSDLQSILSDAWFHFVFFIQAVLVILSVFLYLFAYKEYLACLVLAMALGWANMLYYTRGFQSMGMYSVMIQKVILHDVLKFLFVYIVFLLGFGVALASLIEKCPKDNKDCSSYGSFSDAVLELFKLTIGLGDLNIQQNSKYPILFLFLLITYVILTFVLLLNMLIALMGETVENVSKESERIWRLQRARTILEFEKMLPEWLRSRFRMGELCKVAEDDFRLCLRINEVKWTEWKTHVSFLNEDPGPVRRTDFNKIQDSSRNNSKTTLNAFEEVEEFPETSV
Protocol: Test compounds were evaluated for ability to antagonize the activation of recombinant human TRPV3 using FLIPR® Tetra cellular screening. Specifically, on the day prior to the experiment recombinant HEK293 cells that stably express human TRPV3 were removed from tissue culture flasks and plated in growth medium at 20,000 cells/well into Poly-d-lysine coated black/clear 384-well Plate (Corning, 3845) using a Multidrop® dispenser (ThermoScientific, Waltham, Mass.). Prior to the start of the assay, the medium was removed by aspiration, and cells were loaded with 30 μL no-wash FLIPR® Calcium-4 dye (λEX=470-495 nm, λEM=515-575 nm; Molecular Devices, Sunnyvale, Calif.). The cells were then incubated for 90-120 minutes in the dark prior to addition of the test compound.
A double-addition protocol was used. The test compound (i.e., the TRPV3 antagonist) was added at the 10 second time point, followed by the addition of a TRPV3 agonist three minutes later. Each test compound evaluated was first dissolved in DMSO to prepare a 10 mM stock solution. A solution (5×) of the test compound was then prepared in DPBS (Dulbecco's Phosphate Buffered Saline) and 10 μl, of that solution was added to the cells at a delivery rate of 40 μL/sec. The TRPV3 agonist used to activate human TRPV3 expressed by the […] was 2-aminoethoxy-diphenyl borate (2-APB; Tocris Cookson, Ellisville, Mo.) at 80 μM. Final assay volume was 50 μl, Total length of an experimental run was 10 minutes.
Changes in fluorescence were measured over time using the FLIPR® instrument. The intensity of the fluorescence was captured and digitally transferred to an interfaced computer. The maximum response minus minimum response was calculated and expressed as the percentage of the maximum 2-APB response in the absence of antagonist. The concentration of 2-APB corresponds to its EC80.
Table 1 reports the IC50 values measured for the test compounds as human TRPV3 antagonists. […] Actual measured values are shown parenthetically after the reported range. In most cases, the values reported are average values from at least two runs (i.e., n≧2).

[2] = In vitro human microsomal stability assay; assay type: in vitro ADME
Protocol: as §1

[3] = rat liver microsomes (Sprague-Dawley), 0.5 μM substrate, 0.25 mg/mL microsomal protein, pH 7.4, 37° C., NADPH, 30 minutes
[4] = actual measured value shown parenthetically, in most cases average of at least two runs, read-out: IC50
[5] = reported range, read-out: IC50 (range class)
[6] = human liver microsomes, 0.5 μM substrate, 0.25 mg/mL microsomal protein, pH 7.4, 37° C., NADPH, 30 minutes
[7] = Sprague-Dawley, rat, microsomes, 0.5 h, 0.5 μM, pH 7.4
[8] = human, microsomes, 0.5 h, 0.5 μM, pH 7.4

Structure (SMILES) | IC50 (human TRPV3; [4]) [µM] | RAT MICROSOMAL STABILITY (% REMAINING AFTER 30 MINUTES) [1, 7] [%] | other results
CN1CCC(c2ccc(Cl)c(Cl)c2)(C(O)c2ccccn2)CC1 (stereo not drawn) [Example 141, [4-(3,4-dichlorophenyl)-1-methylpiperidin-4-yl](pyridin-2-yl)methanol] | > 20 |  | RAT MICROSOMAL STABILITY (% REMAINING AFTER 30 MINUTES) [1, 3]: 59%; IC50 (human TRPV3; [5]): > 20 µM; HUMAN MICROSOMAL STABILITY (% REMAINING AFTER 30 MINUTES) [2, 6]: >85%
NC1CCCC1C(O)C1(c2cccc(C(F)(F)F)c2)CCC1 (stereo not drawn) [Example 204, (2-aminocyclopentyl) {1-[3-(trifluoromethyl)phenyl]cyclobutyl}methanol] | 1.6 | >85 | HUMAN MICROSOMAL STABILITY (% REMAINING AFTER 30 MINUTES) [2, 8]: >85%
OC(C1CCc2cccnc21)C1(c2ccccc2OC(F)(F)F)CCC1 (stereo not drawn) [Example 193, (anti)-6,7-dihydro-5H-cyclopenta[b]pyridin-7-yl{1-[2-(trifluoromethoxy)-phenyl]cyclobutyl}methanol] |  |  | RAT […] (% REMAINING AFTER 30 MINUTES) [1, 3]: <0.01%; HUMAN […] (% REMAINING AFTER 30 MINUTES) [2, 6]: 0.02%
OC(c1ncccn1)C1(c2cccc(OC(F)(F)F)c2)CCC1 (stereo not drawn) [Example 37, pyrimidin-2-yl{1-[3-(trifluoromethoxy)phenyl]cyclobutyl}methanol] | 0.83 | 7.7 | 
OC(c1ccccn1)C1(C2=COCCC2)CCC1 (single isomer, unassigned) [Example 270, [1-(3,4-dihydro-2H-pyran-5-yl)cyclobutyl](pyridine-2-yl)methanol] |  | 0.48 | HUMAN MICROSOMAL STABILITY (% REMAINING AFTER 30 MINUTES) [2, 8]: 17%
CC1(O)CC(c2ccc(OC(F)(F)F)cc2)(C(O)c2ncccn2)C1 [Example 311, (trans)-3-((R)-hydroxy(pyrimidin-2-yl)methyl)-1-methyl-3-(4-(trifluoromethoxy)phenyl)cyclobutanol] | > 20 | >85 | IC50 (human TRPV3; [5]): > 20 µM
CC(c1cccc(C(F)(F)F)c1)C1(C(O)c2ccccn2)CCC1 (stereo not drawn) [Example 54, pyridin-2-yl(1-{1-[3-(trifluoromethyl)phenyl]ethyl}cyclobutyl)methanol] | 22 | 0.21 | 
OC(c1ccccn1)C1(C2=CCCOC2)CCC1 (single isomer, unassigned) [Example 269, [1-(5,6-dihydro-2H-pyran-3-yl)cyclobutyl](pyridin-2-yl)methanol] |  | 12 | HUMAN MICROSOMAL STABILITY (% REMAINING AFTER 30 MINUTES) [2, 8]: 40%
CCN(CC)c1ccc(C2(C(O)c3ccccn3)CCC2)cc1 (stereo not drawn) [Example 18, {1-[4-(diethylamino)phenyl]cyclobutyl}(pyridin-2-yl)methanol] | 0.74 | 0.27 | 
CC1(O)CC(c2cccc(OC(F)(F)F)c2)(C(O)c2ccccn2)C1 [Example 263, trans-3-[(S)-hydroxy(pyridin-2-yl)methyl]-1-methyl-3-[3-(trifluoromethoxy)phenyl]cyclobutanol] | 2.8 | >85 | 
OC(c1ccccn1)C1(C2CCOCC2)CCC1 (stereo not drawn) [Example 239, pyridin-2-yl[1-(tetrahydro-2H-pyran-4-yl)cyclobutyl]methanol] |  | 0.072 | HUMAN MICROSOMAL STABILITY (% REMAINING AFTER 30 MINUTES) [2, 8]: 57%
CC(c1ccccc1F)C1(C(O)c2ccccn2)CCC1 (stereo not drawn) [Example 48, {1-[1-(2-fluorophenyl)ethyl]cyclobutyl}(pyridin-2-yl)methanol] | 5.68 |  | 
OC(c1ncccn1)C1(c2ccc(Cl)c(Cl)c2)CCC1 (stereo not drawn) [Example 38, [1-(3,4-dichlorophenyl)cyclobutyl] (pyrimidin-2-yl)methanol] | 0.06 | 9.5 | 
NC1CCCC1C(O)C1(c2cccc(OC(F)(F)F)c2)CCC1 (stereo not drawn) [Example 208, (2-aminocyclopentyl) {1-[3-(trifluoromethoxy)phenyl]cyclobutyl}methanol] | 2.06 | 36 | 
O=C1CC(c2ccc(OC(F)(F)F)cc2)([C@H](O)c2ccccn2)C1 (single isomer, unassigned) [Example 251] | 1.97 |  | 
NC1CCCC1C(O)C1(c2ccccc2OC(F)(F)F)CCC1 (stereo not drawn) [Example 214, (2-aminocyclopentyl) {1-[2-(trifluoromethoxy)phenyl]cyclobutyl}methanol] | 1.22 |  | 
CC(c1cccc(F)c1)C1(C(O)c2ccccn2)CCC1 (stereo not drawn) [Example 47, {1-[1-(3-fluorophenyl)ethyl]cyclobutyl}(pyridin-2-yl)methanol] | 2.22 |  | 
N#Cc1ccc(C2(C(O)c3ccccn3)CCOC2)cc1 (stereo not drawn) [Example 79, 4-{3-[hydroxy(pyridin-2-yl)methyl]tetrahydrofuran-3-yl}benzonitrile] | > 20 |  | IC50 (human TRPV3; [5]): > 20 µM
OC(c1ncccn1)C1(c2ccccc2OC(F)(F)F)CCC1 (stereo not drawn) [Example 36, pyrimidin-2-yl{1-[2-(trifluoromethoxy)phenyl]cyclobutyl}methanol] | 5.18 |  | 
NC1CCCCC1C(O)C1(c2ccc(C(F)(F)F)cc2)CCC1 (stereo not drawn) [Example 207, (2-aminocyclohexyl) {1-[4-(trifluoromethyl)phenyl]cyclobutyl}methanol] | 3.99 |  | 
OC(c1ncccn1)C1(c2ccc(F)cc2)CCC1 (stereo not drawn) [Example 34, [1-(4-fluorophenyl)cyclobutyl](pyrimidin-2-yl)methanol] | > 20 |  | IC50 (human TRPV3; [5]): > 20 µM
NC1CCCCC1C(O)C1(c2ccc(Cl)c(Cl)c2)CCC1 (stereo not drawn) [Example 211, (2-aminocyclohexyl)[1-(3,4-dichlorophenyl)cyclobutyl]methanol] | 6.17 |  | 
NC1CCCCC1C(O)C1(c2cccc(OC(F)(F)F)c2)CCC1 (stereo not drawn) [Example 210, (2-aminocyclohexyl) {1-[3-(trifluoromethoxy)phenyl]cyclobutyl}methanol] | 3.31 |  | 
OC(CC1(c2ccc(Cl)cc2)CCC1)c1ccccn1 (stereo not drawn) [Example 69, 2-[1-(4-chlorophenyl)cyclobutyl]-1-(pyridin-2-yl)ethanol] | 4.97 |  | 
CC1(O)CC(c2cncc(C(F)(F)F)c2)(C(O)c2ccccn2)C1 (single isomer, unassigned) [Example 309] | 3.05 |  | HUMAN MICROSOMAL STABILITY (% REMAINING AFTER 30 MINUTES) [2, 8]: >85%
